Active and inactive are the calls of the source. The rule behind the calls is not given here.
Tests used:
[1] = test system: 5-hydroxytryptamine receptor 2C (Homo sapiens), P28335 [W324A]; assay: Agonist activity at 5HT2CR W324A mutant (unknown origin) expressed in HEK293 cells assessed as IP1 level by HTRF IP1 competitive binding assay; type: cell-based
[2] = Metabolic stability in mouse liver microsomes assessed as intrinsic clearance at 1 uM incubated for 60 mins by LC-MS/MS analysis; type: ADME, Microsome; conditions: read-out: CLH
[3] = Plasma protein binding in human assessed as unbound fraction by LC-MS/MS analysis; type: ADME, cell-free
Cytochrome P450 2C8 = Cytochrome P450 2C8 (Homo sapiens, UniProt P10632); assay: Inhibition of CYP2C8 in human liver microsomes in presence of NADPH by LC-MS/MS analysis; type: ADME, Microsome
Chain of Cytochrome P450 2C8 (P10632 whole entry): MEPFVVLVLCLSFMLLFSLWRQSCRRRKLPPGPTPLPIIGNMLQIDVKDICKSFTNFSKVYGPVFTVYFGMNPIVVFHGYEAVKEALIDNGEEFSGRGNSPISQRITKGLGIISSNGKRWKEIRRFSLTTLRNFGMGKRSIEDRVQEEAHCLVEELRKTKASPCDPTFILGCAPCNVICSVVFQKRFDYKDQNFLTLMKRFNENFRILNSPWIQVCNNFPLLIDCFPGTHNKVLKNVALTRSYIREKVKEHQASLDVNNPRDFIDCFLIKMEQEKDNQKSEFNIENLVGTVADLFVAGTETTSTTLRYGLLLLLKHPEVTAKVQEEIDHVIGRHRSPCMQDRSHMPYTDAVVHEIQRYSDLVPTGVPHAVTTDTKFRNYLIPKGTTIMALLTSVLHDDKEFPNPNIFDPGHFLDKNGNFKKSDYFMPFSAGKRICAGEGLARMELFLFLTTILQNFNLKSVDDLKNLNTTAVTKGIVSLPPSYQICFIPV

[4] = Inhibition of CYP2D6 in human liver microsomes in presence of NADPH by LC-MS/MS analysis; type: ADME, Microsome
Mus musculus [5] = assay: Antipsychotic activity against DOI-induced head-twitch response in mouse assessed as reduction in head-twitch response administered intragastrically and measured for 30 mins; type: functional, organism-based; conditions: dose 1-10 mg/kg
Mus musculus [6] = assay: Antipsychotic activity in amyloid beta (1 to 42) induced hyperlocomotion in mouse model assessed as decrease in total distance traveled at 10 mg/kg by open field test; type: functional, organism-based
[7] = molecular target: Androgen receptor (Homo sapiens) (UniProt P10275); assay: Binding affinity to AR (unknown origin) at 10 uM by radioligand binding assay relative to control
Chain of Androgen receptor (Homo sapiens) (P10275 whole entry): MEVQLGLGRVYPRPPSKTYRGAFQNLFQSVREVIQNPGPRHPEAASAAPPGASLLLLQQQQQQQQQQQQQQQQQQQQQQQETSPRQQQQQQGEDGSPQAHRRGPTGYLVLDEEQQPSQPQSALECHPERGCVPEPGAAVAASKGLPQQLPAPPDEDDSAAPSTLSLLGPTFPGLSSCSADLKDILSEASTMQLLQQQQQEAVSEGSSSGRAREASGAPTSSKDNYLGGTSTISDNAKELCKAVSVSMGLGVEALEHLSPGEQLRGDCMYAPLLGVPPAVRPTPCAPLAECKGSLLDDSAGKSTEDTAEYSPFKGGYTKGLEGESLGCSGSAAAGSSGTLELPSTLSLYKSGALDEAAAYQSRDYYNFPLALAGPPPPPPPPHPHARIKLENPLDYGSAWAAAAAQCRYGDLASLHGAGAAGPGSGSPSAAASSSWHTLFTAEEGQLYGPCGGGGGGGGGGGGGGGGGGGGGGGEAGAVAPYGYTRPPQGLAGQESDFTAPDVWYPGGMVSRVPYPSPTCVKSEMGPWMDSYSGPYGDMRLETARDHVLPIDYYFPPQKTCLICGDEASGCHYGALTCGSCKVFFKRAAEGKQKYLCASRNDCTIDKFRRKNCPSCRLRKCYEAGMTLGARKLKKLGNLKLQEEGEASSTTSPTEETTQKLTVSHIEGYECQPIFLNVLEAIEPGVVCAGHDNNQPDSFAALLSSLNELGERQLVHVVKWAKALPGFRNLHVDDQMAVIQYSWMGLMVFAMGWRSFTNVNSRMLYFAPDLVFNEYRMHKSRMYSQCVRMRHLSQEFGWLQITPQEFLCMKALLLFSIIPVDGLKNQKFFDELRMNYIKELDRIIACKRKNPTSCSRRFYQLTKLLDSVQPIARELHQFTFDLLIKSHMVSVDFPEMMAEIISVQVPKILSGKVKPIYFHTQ

[8] = molecular target: Cannabinoid receptor 2 (Homo sapiens) (UniProt P34972); assay: Binding affinity to CB2 (unknown origin) at 10 uM by radioligand binding assay relative to control
Chain of Cannabinoid receptor 2 (Homo sapiens) (P34972 whole entry): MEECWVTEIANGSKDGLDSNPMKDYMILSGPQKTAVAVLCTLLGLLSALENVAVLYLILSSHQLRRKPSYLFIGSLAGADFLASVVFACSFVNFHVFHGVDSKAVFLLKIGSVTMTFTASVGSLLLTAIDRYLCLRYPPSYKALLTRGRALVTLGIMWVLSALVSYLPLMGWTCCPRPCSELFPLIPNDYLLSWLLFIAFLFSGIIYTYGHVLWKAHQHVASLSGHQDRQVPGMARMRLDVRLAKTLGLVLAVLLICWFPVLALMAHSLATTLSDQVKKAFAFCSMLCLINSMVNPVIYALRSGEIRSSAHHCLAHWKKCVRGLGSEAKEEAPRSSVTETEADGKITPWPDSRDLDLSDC

[9] = molecular target: Beta-1 adrenergic receptor (Homo sapiens) (UniProt P08588); assay: Binding affinity to beta 1 receptor (unknown origin) at 10 uM by radioligand binding assay relative to control
[10] = molecular target: Beta-2 adrenergic receptor (Homo sapiens) (UniProt P07550); assay: Binding affinity to beta 2 receptor (unknown origin) at 10 uM by radioligand binding assay relative to control
Chain of Beta-2 adrenergic receptor (Homo sapiens) (P07550 whole entry, looked up): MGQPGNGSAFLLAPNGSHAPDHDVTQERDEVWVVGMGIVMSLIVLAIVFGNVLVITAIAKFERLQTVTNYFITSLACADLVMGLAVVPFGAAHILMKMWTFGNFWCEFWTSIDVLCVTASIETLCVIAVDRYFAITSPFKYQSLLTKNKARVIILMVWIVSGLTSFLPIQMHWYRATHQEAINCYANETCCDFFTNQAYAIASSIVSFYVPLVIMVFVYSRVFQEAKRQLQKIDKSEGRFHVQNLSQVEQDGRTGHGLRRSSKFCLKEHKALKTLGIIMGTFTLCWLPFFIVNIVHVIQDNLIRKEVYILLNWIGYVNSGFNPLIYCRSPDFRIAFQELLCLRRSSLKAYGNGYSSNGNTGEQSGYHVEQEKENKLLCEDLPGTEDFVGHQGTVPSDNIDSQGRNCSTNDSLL

[11] = molecular target: GABA-A receptor; anion channel (Homo sapiens) (UniProt P14867+P47870+P18507+P28472+P48169+Q99928+Q9UN88+P34903+O00591+O14764+Q8N1C3+P18505+P78334+P47869+P31644+Q16445); assay: Binding affinity to GABAA (unknown origin) at 10 uM by radioligand binding assay relative to control; type: protein-complex assay
Nav1.5 = Nav1.5 (Homo sapiens, UniProt Q14524); assay: Binding affinity to human Nav1.5 receptor at 10 uM by radioligand binding assay relative to control; conditions: read-out: Activity
[12] = molecular target: Tyrosine-protein kinase Lck (Homo sapiens) (UniProt P06239); assay: Binding affinity to LCK receptor (unknown origin) at 10 uM by radioligand binding assay relative to control
Chain of Tyrosine-protein kinase Lck (Homo sapiens) (P06239 2-509 limits assumed): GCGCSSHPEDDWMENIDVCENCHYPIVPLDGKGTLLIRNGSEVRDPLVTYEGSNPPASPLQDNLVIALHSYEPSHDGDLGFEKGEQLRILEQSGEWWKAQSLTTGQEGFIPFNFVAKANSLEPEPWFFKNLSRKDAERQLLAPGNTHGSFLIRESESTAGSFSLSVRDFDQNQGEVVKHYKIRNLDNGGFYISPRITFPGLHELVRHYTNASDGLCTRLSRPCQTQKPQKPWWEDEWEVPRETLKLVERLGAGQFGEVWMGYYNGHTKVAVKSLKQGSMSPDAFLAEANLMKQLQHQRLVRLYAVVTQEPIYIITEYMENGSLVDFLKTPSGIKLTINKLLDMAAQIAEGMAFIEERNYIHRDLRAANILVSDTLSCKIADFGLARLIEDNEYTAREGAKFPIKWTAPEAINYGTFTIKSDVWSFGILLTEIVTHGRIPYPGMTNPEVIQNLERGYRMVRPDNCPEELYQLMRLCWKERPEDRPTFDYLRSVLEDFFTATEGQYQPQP

[13] = molecular target: Neuronal acetylcholine receptor subunit alpha-7 (Homo sapiens) (UniProt P36544); assay: Binding affinity to nACHR-alpha7 (unknown origin) at 10 uM by radioligand binding assay relative to control
Chain of Neuronal acetylcholine receptor subunit alpha-7 (Homo sapiens) (P36544 whole entry): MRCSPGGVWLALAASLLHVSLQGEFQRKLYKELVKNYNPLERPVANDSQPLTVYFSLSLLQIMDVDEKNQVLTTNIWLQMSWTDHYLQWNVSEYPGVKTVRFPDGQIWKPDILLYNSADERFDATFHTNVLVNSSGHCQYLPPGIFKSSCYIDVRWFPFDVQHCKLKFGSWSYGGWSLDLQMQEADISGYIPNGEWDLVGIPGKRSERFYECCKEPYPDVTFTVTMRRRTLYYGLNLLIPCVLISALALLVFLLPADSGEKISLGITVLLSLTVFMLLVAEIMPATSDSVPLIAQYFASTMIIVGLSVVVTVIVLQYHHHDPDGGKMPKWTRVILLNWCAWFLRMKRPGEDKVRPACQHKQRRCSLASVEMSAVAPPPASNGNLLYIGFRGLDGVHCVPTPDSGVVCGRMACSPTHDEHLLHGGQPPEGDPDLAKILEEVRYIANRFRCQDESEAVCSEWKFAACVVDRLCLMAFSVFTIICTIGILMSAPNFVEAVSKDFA

[14] = molecular target: Sodium-dependent noradrenaline transporter (Homo sapiens) (UniProt P23975); assay: Binding affinity to NET receptor (unknown origin) at 10 uM by radioligand binding assay relative to control
Chain of Sodium-dependent noradrenaline transporter (Homo sapiens) (P23975 whole entry): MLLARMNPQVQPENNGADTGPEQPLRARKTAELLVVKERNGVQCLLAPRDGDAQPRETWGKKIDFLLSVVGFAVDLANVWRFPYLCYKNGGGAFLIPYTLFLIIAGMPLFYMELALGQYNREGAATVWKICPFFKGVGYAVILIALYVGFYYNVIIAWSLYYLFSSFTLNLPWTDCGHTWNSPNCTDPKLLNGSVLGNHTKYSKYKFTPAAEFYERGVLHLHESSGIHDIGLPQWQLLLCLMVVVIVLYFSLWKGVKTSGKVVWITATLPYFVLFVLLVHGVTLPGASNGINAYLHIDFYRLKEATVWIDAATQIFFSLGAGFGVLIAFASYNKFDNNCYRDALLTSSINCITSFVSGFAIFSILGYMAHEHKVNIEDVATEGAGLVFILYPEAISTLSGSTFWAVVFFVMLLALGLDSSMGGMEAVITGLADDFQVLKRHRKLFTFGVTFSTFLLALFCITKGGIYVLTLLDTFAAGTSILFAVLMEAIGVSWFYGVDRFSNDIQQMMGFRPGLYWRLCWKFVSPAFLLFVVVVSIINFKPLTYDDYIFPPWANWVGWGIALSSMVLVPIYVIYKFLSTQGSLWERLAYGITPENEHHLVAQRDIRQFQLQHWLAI

[15] = molecular target: Glutamate [NMDA] receptor (Homo sapiens) (UniProt Q05586+Q12879+Q13224+O15399+O60391+Q14957+Q8TCU5); assay: Binding affinity to NMDA receptor (unknown origin) at 10 uM by radioligand binding assay relative to control; type: protein-complex assay
[16] = molecular target: Sodium-dependent serotonin transporter (Homo sapiens) (UniProt P31645); assay: Binding affinity to 5-HTT (unknown origin) at 10 uM by radioligand binding assay relative to control
Chain of Sodium-dependent serotonin transporter (Homo sapiens) (P31645 whole entry, looked up): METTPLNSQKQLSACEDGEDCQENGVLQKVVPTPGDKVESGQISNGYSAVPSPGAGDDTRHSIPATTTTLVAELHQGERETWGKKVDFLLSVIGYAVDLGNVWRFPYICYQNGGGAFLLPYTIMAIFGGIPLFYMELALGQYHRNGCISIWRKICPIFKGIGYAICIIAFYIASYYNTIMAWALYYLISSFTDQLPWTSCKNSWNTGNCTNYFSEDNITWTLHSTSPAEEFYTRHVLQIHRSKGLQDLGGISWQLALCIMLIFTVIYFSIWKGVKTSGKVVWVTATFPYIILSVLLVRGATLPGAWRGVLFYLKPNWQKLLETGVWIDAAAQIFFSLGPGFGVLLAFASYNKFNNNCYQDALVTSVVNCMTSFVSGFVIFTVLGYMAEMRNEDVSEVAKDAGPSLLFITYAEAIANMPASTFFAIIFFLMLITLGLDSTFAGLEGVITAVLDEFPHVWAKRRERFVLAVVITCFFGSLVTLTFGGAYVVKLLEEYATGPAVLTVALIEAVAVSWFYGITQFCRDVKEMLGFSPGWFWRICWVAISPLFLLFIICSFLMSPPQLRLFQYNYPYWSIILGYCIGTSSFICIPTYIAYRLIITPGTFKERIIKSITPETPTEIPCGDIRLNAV

[17] = Cardiotoxicity in conscious cynomolgus monkey assessed as change in diastolic pressure at 3.125 to 12.5 mg/kg, IG measured within 25 hrs; type: toxicity, organism-based, Macaca fascicularis; conditions: in vivo, po, dose 3.125-12.5 mg/kg
[18] = Cardiotoxicity in conscious cynomolgus monkey assessed as change in mean arterial pressure at 3.125 to 12.5 mg/kg, IG measured within 25 hrs; type: toxicity, organism-based, Macaca fascicularis; conditions: in vivo, po, dose 3.125-12.5 mg/kg
[19] = Cardiotoxicity in conscious cynomolgus monkey assessed as decrease in body temperature at 3.125 to 12.5 mg/kg, IG by digital thermometer analysis; type: toxicity, organism-based, Macaca fascicularis; conditions: in vivo, po, dose 3.125-12.5 mg/kg
[20] = Toxicity in Sprague-Dawley rat assessed as good general health at 2.5 to 7.5 mg/kg, po administered once daily for 4 weeks; type: organism-based; conditions: in vivo, 672 h, dose 2.5-7.5 mg/kg
[21] = Toxicity in Sprague-Dawley rat assessed as normal spontaneous movement at 2.5 to 7.5 mg/kg, po administered once daily for 4 weeks and measured after 4 weeks; type: organism-based; conditions: in vivo, 1344 h, dose 2.5-7.5 mg/kg, time 8 weeks
[22] = Toxicity in Sprague-Dawley rat assessed as animal death 2.5 to 7.5 mg/kg, po administered once daily for 4 weeks; type: organism-based; conditions: in vivo, 672 h, dose 2.5-7.5 mg/kg
[23] = Toxicity in Sprague-Dawley rat assessed as catalepsy 2.5 to 7.5 mg/kg, po administered once daily for 4 weeks; type: organism-based; conditions: in vivo, 672 h, dose 2.5-7.5 mg/kg
[24] = Toxicity in female Sprague-Dawley rat assessed as suppression of body weight gain at 7.5 mg/kg, po administered once daily for 4 weeks and measured after 4 weeks; type: organism-based; conditions: in vivo, 1344 h, time 8 weeks
[25] = Toxicity in male Sprague-Dawley rat assessed as irritability at 2.5 mg/kg, po administered once daily for 4 weeks and measured after 4 weeks; type: organism-based; conditions: in vivo, 1344 h, time 8 weeks
[26] = Toxicity in female Sprague-Dawley rat assessed as minimal corneal neovascularization at 2.5 to 7.5 mg/kg, po administered once daily for 4 weeks and measured after 4 weeks; type: organism-based; conditions: in vivo, 1344 h, dose 2.5-7.5 mg/kg, time 8 weeks
[27] = Toxicity in male Sprague-Dawley rat assessed as corneal epithelial degeneration at 7.5 mg/kg, po administered once daily for 4 weeks; type: organism-based; conditions: in vivo, 672 h
[28] = Toxicity in male Beagle dog assessed as change in body weight at 0.75 to 2.5 mg/kg, IG administered once daily for 4 weeks and measured after 4 weeks; type: organism-based, Canis lupus familiaris; conditions: in vivo, po, 1344 h, dose 0.75-2.5 mg/kg, time 8 weeks
[29] = Toxicity in female Beagle dog assessed as change in body temperature at 0.75 to 2.5 mg/kg, IG administered once daily for 4 weeks and measured after 4 weeks; type: organism-based, Canis lupus familiaris; conditions: in vivo, po, 1344 h, dose 0.75-2.5 mg/kg, time 8 weeks
[30] = Toxicity in female Beagle dog assessed as change in prolactin at 0.75 to 2.5 mg/kg, IG administered once daily for 4 weeks and measured after 4 weeks; type: organism-based, Canis lupus familiaris; conditions: in vivo, po, 1344 h, dose 0.75-2.5 mg/kg, time 8 weeks
[31] = Toxicity in female Beagle dog assessed as change in urinalysis at 0.75 to 2.5 mg/kg, IG administered once daily for 4 weeks and measured after 4 weeks; type: organism-based, Canis lupus familiaris; conditions: in vivo, po, 1344 h, dose 0.75-2.5 mg/kg, time 8 weeks
[32] = Toxicity in male Beagle dog assessed as change in organ weight at 0.75 to 2.5 mg/kg, IG administered once daily for 4 weeks and measured after 4 weeks; type: organism-based, Canis lupus familiaris; conditions: in vivo, po, 1344 h, dose 0.75-2.5 mg/kg, time 8 weeks
[33] = Toxicity in male Beagle dog assessed as somnolence at 2.5 mg/kg, IG administered once daily for 4 weeks and measured after 4 weeks; type: organism-based, Canis lupus familiaris; conditions: in vivo, po, 1344 h, time 8 weeks
[34] = Toxicity in male Beagle dog assessed as minimal decrease activity at 2.5 mg/kg, IG administered once daily for 4 weeks and measured after 4 weeks; type: organism-based, Canis lupus familiaris; conditions: in vivo, po, 1344 h, time 8 weeks

Chain of 5-hydroxytryptamine receptor 2C (Homo sapiens), P28335 [W324A] (P28335 whole entry W324A): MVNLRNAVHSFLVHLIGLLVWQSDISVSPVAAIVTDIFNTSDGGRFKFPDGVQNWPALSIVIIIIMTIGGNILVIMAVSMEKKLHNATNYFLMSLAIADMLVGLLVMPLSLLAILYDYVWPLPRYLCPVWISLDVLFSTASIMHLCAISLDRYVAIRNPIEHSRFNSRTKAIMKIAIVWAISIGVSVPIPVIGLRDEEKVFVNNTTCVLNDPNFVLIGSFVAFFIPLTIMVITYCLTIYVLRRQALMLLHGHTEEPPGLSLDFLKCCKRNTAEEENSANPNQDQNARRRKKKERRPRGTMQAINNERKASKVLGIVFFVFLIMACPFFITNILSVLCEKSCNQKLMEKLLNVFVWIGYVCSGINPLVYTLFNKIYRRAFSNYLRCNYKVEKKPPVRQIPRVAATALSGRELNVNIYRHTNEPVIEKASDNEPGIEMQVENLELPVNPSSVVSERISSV

Q: With `c1cc2c(s1)[C@@H]1CNCCN1CC2` as the molecule, how does the Activity [1] read?
A: inactive

Q: And the CLint scaled at 1 µM [2]?
A: < 29.7 mL/min/kg

Q: And the fraction unbound [3]?
A: 0.668

Q: And the IC50 (Cytochrome P450 2C8)?
A: > 50 µM

Q: And the IC50 [4]?
A: > 50 µM

Q: What about the Activity (Mus musculus [5]) of the same molecule?
A: Dose-dependent-effect

Q: What about the Activity (Mus musculus [6]) of the same molecule?
A: Active

Q: What about the Activity [7] of the same molecule?
A: -5.37%

Q: And the Activity [8]?
A: 2.7%

Q: And the Activity [9]?
A: -0.11%

Q: What about the Activity [10] of the same molecule?
A: -12.2%

Q: What about the Activity [11] of the same molecule?
A: -21.4%

Q: And the activity at 10 µM (Nav1.5)?
A: 13.4%

Q: And the Activity [12]?
A: 3.4%

Q: What about the Activity [13] of the same molecule?
A: 5.02%

Q: And the Activity [14]?
A: 8.57%

Q: And the Activity [15]?
A: 4.53%

Q: And the Activity [16]?
A: 1.76%

Q: And the Activity [17]?
A: Non-toxic

Q: What about the Activity [18] of the same molecule?
A: Non-toxic

Q: And the Activity [19]?
A: Non-toxic

Q: And the Activity [20]?
A: Non-toxic

Q: What about the Activity [21] of the same molecule?
A: Non-toxic

Q: What about the Activity [22] of the same molecule?
A: Non-toxic

Q: And the Activity [23]?
A: Non-toxic

Q: What about the Activity [24] of the same molecule?
A: Toxic

Q: And the Activity [25]?
A: Non-toxic

Q: And the Activity [26]?
A: Non-toxic

Q: What about the Activity [27] of the same molecule?
A: Toxic

Q: What about the Activity [28] of the same molecule?
A: Non-toxic

Q: And the Activity [29]?
A: Non-toxic

Q: What about the Activity [30] of the same molecule?
A: Non-toxic

Q: And the Activity [31]?
A: Non-toxic

Q: And the Activity [32]?
A: Non-toxic

Q: And the Activity [33]?
A: Non-toxic

Q: And the Activity [34]?
A: Non-toxic
